Assay results reported in patent publication US20040254161A1, “New benzothiazine and benzothiadiazine compounds” (priority 2003, published 2004).

What was measured:
AMPA receptors = experiment: Excitatory currents induced by AMPA in Xenopus oocytes (two-electrode voltage-clamp); format: cell-based; details: Xenopus oocytes injected with rat cerebral cortex poly(A+) mRNA; AMPA 10 μM; 20-24° C., OR2 medium
Experimental: Study of the Excitatory Currents Induced by AMPA in Xenopus oocytes
mRNA's are prepared from cerebral cortex of male Wistar rats by the guanidinium thiocyanate/phenol/chloroform method. The poly (A^+) mRNA's are isolated by chromatography on oligo-dT cellulose and injected at a level of 50 ng per oocyte. The oocytes are incubated for 2 to 3 days at 18° C. to permit expression of the receptors and are then stored at 8-10° C.
Electrophysiological recording is carried out in a Plexiglass® chamber at 20-24° C. in OR2 medium (J. Exp. Zool., 1973, 184, 321-334) by the “voltage-clamp” method using two electrodes, with a third electrode placed in the bath serving as reference.
All the compounds are applied via the incubation medium and the electric current is measured at the end of the application period. AMPA is used in a concentration of 10 μM. For each compound studied, the concentration that doubles (EC2X) or quintuples (EC5X) the intensity of the current induced by AMPA alone (5 to 50 nA) is determined.

SMILES | melting point | EC2X (concentration that doubles the intensity of the current induced by AMPA alone) (AMPA receptors) | EC5X (concentration that quintuples the intensity of the current induced by AMPA alone) (AMPA receptors)
CC(C)S(=O)(=O)NCc1cccc(Oc2ccc3c(c2)S(=O)(=O)NC2CCCN32)c1 (stereo not drawn) [Example 18, N-{3-[(5,5-Dioxido-2,3,3a,4-tetrahydro-1H-pyrrolo[2,1-c][1,2,4]-benzothiadiazin-7-yl)oxy]benzyl}propane-2-sulphonamide] | 112 to 118 °C |  | 
CS(=O)(=O)NCc1ccc(Oc2ccc3c(c2)S(=O)(=O)NC2CCCN32)cc1 (stereo not drawn) [Example 21, N-{4-[(5,5-Dioxido-2,3,3a,4-tetrahydro-1H-pyrrolo[2,1-c][1,2,4]-benzothiadiazin-7-yl)oxy]benzyl}methanesulphonamide] |  | 0.1 µM | 0.56 µM
O=S1(=O)NC2CCCN2c2ccc(Oc3cccc(CNS(=O)(=O)C(F)(F)F)c3)cc21 (stereo not drawn) [Example 9, N-{3-[(5,5-Dioxido-2,3,3a,4-tetrahydro-1H-pyrrolo[2,1-c][1,2,4]-benzothiadiazin-7-yl)oxy]benzyl}(trifluoro)methanesulphonamide] | 104 to 113 °C |  | 
CC(=O)NCc1cccc(Oc2ccc3c(c2)S(=O)(=O)NC2CCCN32)c1 (stereo not drawn) [Example 3, N-{3-[(5,5-Dioxido-2,3,3a,4-tetrahydro-1H-pyrrolo[2,1-c][1,2,4]-benzothiadiazin-7-yl)oxy]benzyl}acetamide] | 58 °C |  | 
Cl.NCc1cccc(Oc2ccc3c(c2)S(=O)(=O)NC2CCCN32)c1 (stereo not drawn) [Example 1, {3-[(5,5-Dioxido-2,3,3a,4-tetrahydro-1H-pyrrolo[2,1-c][1,2,4]-benzothiadiazin-7-yl)oxy]phenyl}methanamine hydrochloride] |  | 3.5 µM | 9.2 µM
CS(=O)(=O)NCc1cccc(Oc2ccc3c(c2)S(=O)(=O)NC2CCCN32)c1 (stereo not drawn) [Example 2, N-{3-[(5,5-Dioxido-2,3,3a,4-tetrahydro-1H-pyrrolo[2,1-c][1,2,4]-benzothiadiazin-7-yl)oxy]benzyl}methanesulphonamide] |  | 0.35 µM | 2.6 µM
